This passage reports melting point results from patent US6593337B1, “Tricyclic compounds useful as HIV reverse transcriptase inhibitors” (Bristol-Myers Squibb Pharma Company, priority 1999, dated 2003).

The structures appear in SMILES notation.

The compound `CC(C)N(C)CC1(C(F)(F)F)c2cc(Cl)ccc2Nc2ncccc21` (stereo not drawn) [No. 93] gave a melting point of 157 to 158 °C.

`CCN(CC)CC1(C(F)(F)F)c2cc(Cl)ccc2Nc2ncccc21` (stereo not drawn) [No. 94, 7-Chloro-5-(N,N-diethylaminomethyl)-5,10-dihydro-5-(trifluoromethyl)benzo[b][1,8]napthyridine] displayed a melting point of 110 to 111 °C.

`Fc1ccc2c(c1)C(OCC1CC1)(C(F)F)c1cccnc1N2` (stereo not drawn) [No. 180, 7-Fluoro-5-cyclopropylmethoxy-5-difluoromethyl-5,10-dihydro-benzo[b][1,8]naphthyridine] returned a melting point of 137 to 138 °C.

Regarding `FC(F)C1(OCCC2CC2)c2cc(Cl)ccc2Nc2ncccc21` (stereo not drawn) [No. 181, 7-Chloro-5-(2-cyclopropyl-ethoxy)-5-difluoromethyl-5,10-dihydro-benzo[b][1,8]naphthyridine], the melting point lay within 148 to 149 °C.

The compound `FC(F)C1(Cc2ccccn2)c2cc(Cl)ccc2Nc2ncccc21` (stereo not drawn) [No. 182, 7-Chloro-5-pyridin-2-ylmethyl-5-difluoromethyl-5,10-dihydro-benzo[b][1,8]naphthyridine] returned a melting point of 204 to 205 °C.

The compound `[O-][n+]1cccc2c1Nc1ccc(Cl)cc1C2(OCC1CC1)C(F)F` (stereo not drawn) [No. 184, 7-Chloro-5-cyclopropylmethoxy-5-difluoromethyl-5,10-dihydro-benzo[b][1,8]naphthyridine 1-oxide] showed a melting point of 185 to 186 °C.

The compound `[O-][n+]1cccc2c1Nc1ccc(F)cc1C2(OCC1CC1)C(F)F` (stereo not drawn) [No. 185, 7-Fluoro-5-cyclopropylmethoxy-5-difluoromethyl-5,10-dihydro-benzo[b][1,8]naphthyridine 1-oxide] displayed a melting point of 166 to 167 °C.

`[O-][n+]1cccc2c1Nc1ccc(Cl)cc1C2(OCCC1CC1)C(F)F` (stereo not drawn) [No. 186, 7—Chloro-5-(2-cyclopropyl-ethoxy)-5-difluoromethyl-5,10-dihydro-benzo[b][1,8]naphthyridine 1-oxide] registered a melting point of 175 to 176 °C.

`[O-][n+]1cccc2c1Nc1ccc(Cl)cc1C2(Cc1ccccn1)C(F)F` (stereo not drawn) [No. 187, 7—Chloro-5-pyridin-2-ylmethyl-5-difluoromethyl-5,10-dihydro-benzo[b][1,8]naphthyridine 1-oxide] yielded a melting point of 210 to 211 °C.

As for `[O-][n+]1cc(Cl)cc2c1Nc1ccc(Cl)cc1C2(OCC1CC1)C(F)F` (stereo not drawn) [No. 188, 3,7-Dichloro-5-cyclopropylmethoxy-5-difluoromethyl-5,10-dihydro-benzo[b][1,8]naphthyridine 1-oxide], the melting point was 163 to 164 °C.

With `[O-][n+]1cccc2c1Nc1ncc(Cl)cc1C2(OCC1CC1)C(F)(F)F` (stereo not drawn) [No. 201, 3-Chloro-10-cyclopropylmethoxy-10-trifluoromethyl-9,10-dihydro-1,8,9-triaza-anthracene 8-oxide], the melting point fell in the range of 68 to 69 °C.

`CC(C)COC1(C(F)(F)F)c2cccnc2Nc2ncc(Cl)cc21` (stereo not drawn) [No. 203, 3-Chloro-10-isobutoxy-10-trifluoromethyl-9,10-dihydro-1,8,9-triaza-anthracene] registered a melting point of 166 to 167 °C.

What is called melting point is the temperature, or range, at which the solid turns liquid.
